The target in data set [1] is protein kinases (panel of Table 4) (Homo sapiens, UniProt P12931). Description: Kinase selectivity profile, kinase inhibition IC50 (Table 4), ATP 100 μM. Format: biochemical. As to conditions: kinase Src.
In data set [2] the target is T1, protein kinases (panel of Table 4) (Homo sapiens, UniProt Q16539).
T1 construct: other: kinase SAPK2a; ATP 100 μM
The data set is described as above. Format: biochemical. As to conditions: kinase SAPK2a.

The target in another data set is CDK2-cyclin A (Homo sapiens, UniProt P24941). Nature of the data set: Kinase selectivity profile, CDK2/cyclin A. It is filed as biochemical. As to conditions: 5 μM test compound, compared to control; ATP 20 μM. The procedure: (§1) The kinase selectivity profiles of selected example compounds were determined, essentially as described (Bain, J.; McLauchlan, H.; Elliott, M.; Cohen, P. Biochemical Journal, 2003, 371, 199.); the results are shown in Tables 3 & 4. For the assays shown in Table 3, the kinases were assayed at the following ATP concentrations: SAPK4, PKBΔph, GSK3b, SAPK3, CK2, MKK1, PIM2, IKKB, ERK8, and PRK2 at 5 μM; JNK, PRAK, ROCK-II, SAPK2b, CDK2, CHK1, MSK1, CSK, P70S6K, PKA, CK1, MAPKAP-K2, SGK, PKCa, PDK1, NEK 7, and MAPKAP-K3 at 20 μM; SAPK2a, LCK, AMPK, MAPK2, DYRK1a, MAPKAP-K1a, NEK-6, NEK2a, PBK, CAMK-1, SRPK-1, JNK3, MNK2, RSK2, MNK1, PKBB, and SmMLCK at 50 μM. For the assays in Table 4 the ATP concentration was 100 μM throughout.

For a further data set, the target named is NEK2a (Homo sapiens, UniProt P51955). Description: Kinase selectivity profile, NEK2a. Format: biochemical. Conditions: 5 μM test compound, compared to control; ATP 50 μM. The procedure: as §1
Another data set concerns the target NEK7 (Homo sapiens, UniProt Q8TDX7). Nature of the data set: Kinase selectivity profile, NEK7. It is filed as biochemical. Conditions: 5 μM test compound, compared to control; ATP 20 μM. The method, then: as §1
Another data set deals with PDK1 (Homo sapiens, UniProt O15530). Nature of the data set: Kinase selectivity profile, PDK1. It is filed as biochemical. Conditions: 5 μM test compound, compared to control; ATP 20 μM. The method, then:
as §1

A further data set has as its target CAMK-1 (Homo sapiens, UniProt Q14012). Description: Kinase selectivity profile, CAMK-1. It is filed as biochemical. As to conditions: 5 μM test compound, compared to control; ATP 50 μM. The method, then: as §1
In a further data set the target is SGK (Homo sapiens, UniProt O00141). Nature of the data set: Kinase selectivity profile, SGK. It is filed as biochemical. As to conditions: 5 μM test compound, compared to control; ATP 20 μM. The procedure: as §1
For a further data set, the target named is PRK2 (Homo sapiens, UniProt Q16513). Description: Kinase selectivity profile, PRK2. Conditions: 5 μM test compound, compared to control; ATP 5 μM. It is filed as biochemical. The method, then:
as §1

The target of another data set is MKK1 (Homo sapiens, UniProt Q02750). Description: Kinase selectivity profile, MKK1. Format: biochemical. As to conditions: 5 μM test compound, compared to control; ATP 5 μM. The procedure:
as §1

A further data set relates to PKB. Nature of the data set: Kinase selectivity profile, PKB. It is filed as biochemical. Conditions: 5 μM test compound, compared to control; ATP 5 μM (PKBΔph). The procedure:
as §1

The target of another data set is PKA (Homo sapiens, UniProt P17612). Nature of the data set: Kinase selectivity profile, PKA. Format: biochemical. As to conditions: 5 μM test compound, compared to control; ATP 20 μM. The method, then:
as §1

The next data set has as its system CK2. Nature of the data set: Kinase selectivity profile, CK2. Format: biochemical. As to conditions: 5 μM test compound, compared to control; ATP 5 μM. The procedure: as §1
A further data set deals with PHK. Description: Kinase selectivity profile, PHK. Format: biochemical. Conditions: 5 μM test compound, compared to control. The method, then:
as §1

Another data set addresses CSK (Homo sapiens, UniProt P41240). Description: Kinase selectivity profile, CSK. It is filed as biochemical. As to conditions: 5 μM test compound, compared to control; ATP 20 μM. The method, then:
as §1

A further data set addresses PRAK (Homo sapiens, UniProt Q8IW41). Nature of the data set: Kinase selectivity profile, PRAK. It is filed as biochemical. As to conditions: 5 μM test compound, compared to control; ATP 20 μM. The procedure: as §1
In the next data set the target is SRPK1 (Homo sapiens, UniProt Q96SB4). Description: Kinase selectivity profile, SRPK1. It is filed as biochemical. As to conditions: 5 μM test compound, compared to control; ATP 50 μM. The procedure: as §1
The target of the next data set is MSK1 (Homo sapiens, UniProt O75582). Description: Kinase selectivity profile, MSK1. Conditions: 5 μM test compound, compared to control; ATP 20 μM. It is filed as biochemical. The procedure: as §1
The next data set relates to CK1. Nature of the data set: Kinase selectivity profile, CK1. Format: biochemical. As to conditions: 5 μM test compound, compared to control; ATP 20 μM. The procedure: as §1
Another data set concerns AMPK. Nature of the data set: Kinase selectivity profile, AMPK. It is filed as biochemical. Conditions: 5 μM test compound, compared to control; ATP 50 μM. The procedure: as §1
The next data set has as its target MAPKAP-K3 (Homo sapiens, UniProt Q16644). Nature of the data set: Kinase selectivity profile, MAPKAP-K3. Format: biochemical. Conditions: 5 μM test compound, compared to control; ATP 20 μM. The method, then: as §1
The next data set deals with SAPK4/p38d (Homo sapiens, UniProt O15264). Nature of the data set: Kinase selectivity profile, SAPK4/p38d. Format: biochemical. Conditions: 5 μM test compound, compared to control; ATP 5 μM. The method, then: as §1
The next data set concerns the target MAPKAP-K1a (Homo sapiens, UniProt Q15418). Nature of the data set: Kinase selectivity profile, MAPKAP-K1a. It is filed as biochemical. As to conditions: 5 μM test compound, compared to control; ATP 50 μM. The method, then: as §1

Chain of MKK1 (Q02750 whole entry, species assumed): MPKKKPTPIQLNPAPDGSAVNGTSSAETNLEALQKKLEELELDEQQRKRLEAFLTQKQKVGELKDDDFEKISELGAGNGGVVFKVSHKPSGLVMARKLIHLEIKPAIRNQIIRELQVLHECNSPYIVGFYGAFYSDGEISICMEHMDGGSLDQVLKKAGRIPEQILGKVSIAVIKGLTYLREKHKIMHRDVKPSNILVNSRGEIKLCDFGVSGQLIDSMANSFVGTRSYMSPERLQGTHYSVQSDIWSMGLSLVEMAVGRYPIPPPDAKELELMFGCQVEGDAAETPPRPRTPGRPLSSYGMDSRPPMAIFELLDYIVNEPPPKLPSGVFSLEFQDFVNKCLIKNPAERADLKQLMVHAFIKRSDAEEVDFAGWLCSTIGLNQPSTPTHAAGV
Chain of PDK1 (O15530 whole entry): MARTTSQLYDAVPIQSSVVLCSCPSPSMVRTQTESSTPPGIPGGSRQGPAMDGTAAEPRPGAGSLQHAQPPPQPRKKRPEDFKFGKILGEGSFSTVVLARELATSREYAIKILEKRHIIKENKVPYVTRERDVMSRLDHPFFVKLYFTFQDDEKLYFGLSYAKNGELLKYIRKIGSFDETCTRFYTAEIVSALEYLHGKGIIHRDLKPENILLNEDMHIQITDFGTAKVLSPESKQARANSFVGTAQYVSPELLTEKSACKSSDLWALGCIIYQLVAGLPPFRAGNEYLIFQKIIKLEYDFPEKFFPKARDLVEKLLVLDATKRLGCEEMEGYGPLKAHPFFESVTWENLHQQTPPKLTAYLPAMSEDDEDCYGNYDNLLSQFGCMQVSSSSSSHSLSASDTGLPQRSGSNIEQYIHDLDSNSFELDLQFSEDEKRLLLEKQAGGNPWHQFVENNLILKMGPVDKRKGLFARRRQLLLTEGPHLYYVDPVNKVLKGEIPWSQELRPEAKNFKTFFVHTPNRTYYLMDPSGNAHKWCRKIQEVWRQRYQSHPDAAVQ
Chain of PRAK (Q8IW41 whole entry, species assumed): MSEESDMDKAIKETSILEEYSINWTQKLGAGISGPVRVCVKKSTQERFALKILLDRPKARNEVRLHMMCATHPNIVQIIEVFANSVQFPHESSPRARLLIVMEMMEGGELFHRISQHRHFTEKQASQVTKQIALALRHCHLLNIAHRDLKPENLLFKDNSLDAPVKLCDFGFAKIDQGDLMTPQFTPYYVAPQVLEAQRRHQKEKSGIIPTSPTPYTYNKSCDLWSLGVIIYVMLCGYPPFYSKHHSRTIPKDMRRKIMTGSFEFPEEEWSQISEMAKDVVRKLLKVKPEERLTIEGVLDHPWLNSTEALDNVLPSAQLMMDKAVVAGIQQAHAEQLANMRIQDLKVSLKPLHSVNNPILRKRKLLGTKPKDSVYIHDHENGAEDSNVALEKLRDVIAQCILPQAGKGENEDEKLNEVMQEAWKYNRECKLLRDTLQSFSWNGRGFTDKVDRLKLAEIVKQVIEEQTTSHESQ
Chain of SGK (O00141 whole entry, species assumed): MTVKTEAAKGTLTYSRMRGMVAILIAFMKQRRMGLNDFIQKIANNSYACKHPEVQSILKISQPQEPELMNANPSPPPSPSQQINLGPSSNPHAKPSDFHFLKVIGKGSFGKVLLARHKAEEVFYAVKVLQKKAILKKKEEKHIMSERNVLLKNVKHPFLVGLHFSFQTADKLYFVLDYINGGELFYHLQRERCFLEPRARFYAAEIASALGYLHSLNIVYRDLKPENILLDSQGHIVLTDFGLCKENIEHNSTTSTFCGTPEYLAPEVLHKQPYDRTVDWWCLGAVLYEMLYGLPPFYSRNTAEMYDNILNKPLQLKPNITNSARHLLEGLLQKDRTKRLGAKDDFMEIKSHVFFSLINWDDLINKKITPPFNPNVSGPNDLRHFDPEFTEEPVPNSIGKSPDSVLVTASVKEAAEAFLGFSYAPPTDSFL
Chain of MSK1 (O75582 whole entry, species assumed): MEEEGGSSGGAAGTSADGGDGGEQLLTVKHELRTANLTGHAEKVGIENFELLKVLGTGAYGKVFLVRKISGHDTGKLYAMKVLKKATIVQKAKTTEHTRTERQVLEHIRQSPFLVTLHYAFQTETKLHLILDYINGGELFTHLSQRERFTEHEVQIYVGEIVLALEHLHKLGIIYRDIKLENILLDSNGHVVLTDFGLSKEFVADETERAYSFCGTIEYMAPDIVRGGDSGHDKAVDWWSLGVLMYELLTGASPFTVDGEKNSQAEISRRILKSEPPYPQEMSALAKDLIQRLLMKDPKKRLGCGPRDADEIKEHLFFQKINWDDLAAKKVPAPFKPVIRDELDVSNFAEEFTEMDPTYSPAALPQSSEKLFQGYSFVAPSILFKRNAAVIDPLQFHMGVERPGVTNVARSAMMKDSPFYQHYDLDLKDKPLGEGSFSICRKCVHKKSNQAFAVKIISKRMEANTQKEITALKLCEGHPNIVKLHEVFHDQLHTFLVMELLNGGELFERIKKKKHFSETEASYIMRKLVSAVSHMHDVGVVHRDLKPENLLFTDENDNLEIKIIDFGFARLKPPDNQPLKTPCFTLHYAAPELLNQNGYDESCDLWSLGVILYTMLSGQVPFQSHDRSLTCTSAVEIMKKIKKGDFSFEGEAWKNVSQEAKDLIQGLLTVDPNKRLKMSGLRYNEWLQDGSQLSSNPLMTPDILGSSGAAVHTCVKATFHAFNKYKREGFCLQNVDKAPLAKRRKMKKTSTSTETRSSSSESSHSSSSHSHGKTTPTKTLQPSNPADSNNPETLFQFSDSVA
Chain of MAPKAP-K3 (Q16644 whole entry, species assumed): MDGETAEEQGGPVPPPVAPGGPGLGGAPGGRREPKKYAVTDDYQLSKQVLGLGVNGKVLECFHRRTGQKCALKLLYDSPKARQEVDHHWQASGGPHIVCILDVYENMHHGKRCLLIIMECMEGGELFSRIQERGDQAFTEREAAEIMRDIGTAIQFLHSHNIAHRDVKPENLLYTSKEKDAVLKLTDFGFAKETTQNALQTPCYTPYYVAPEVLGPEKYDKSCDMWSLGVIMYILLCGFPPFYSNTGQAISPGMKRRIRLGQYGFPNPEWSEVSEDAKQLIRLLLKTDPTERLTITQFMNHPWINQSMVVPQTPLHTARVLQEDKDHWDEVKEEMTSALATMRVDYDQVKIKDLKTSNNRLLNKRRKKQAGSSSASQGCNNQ
Chain of SAPK4/p38d (O15264 whole entry): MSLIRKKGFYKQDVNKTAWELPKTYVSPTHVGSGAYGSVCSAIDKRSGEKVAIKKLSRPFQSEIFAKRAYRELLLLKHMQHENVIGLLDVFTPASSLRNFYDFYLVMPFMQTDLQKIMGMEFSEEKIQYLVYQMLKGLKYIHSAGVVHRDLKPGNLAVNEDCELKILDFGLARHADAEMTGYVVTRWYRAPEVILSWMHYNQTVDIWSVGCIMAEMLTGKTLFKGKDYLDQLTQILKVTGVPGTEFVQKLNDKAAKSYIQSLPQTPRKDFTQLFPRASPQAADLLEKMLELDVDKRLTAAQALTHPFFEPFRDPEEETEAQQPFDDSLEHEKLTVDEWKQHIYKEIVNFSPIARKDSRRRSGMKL
Chain of NEK2a (P51955 whole entry, species assumed): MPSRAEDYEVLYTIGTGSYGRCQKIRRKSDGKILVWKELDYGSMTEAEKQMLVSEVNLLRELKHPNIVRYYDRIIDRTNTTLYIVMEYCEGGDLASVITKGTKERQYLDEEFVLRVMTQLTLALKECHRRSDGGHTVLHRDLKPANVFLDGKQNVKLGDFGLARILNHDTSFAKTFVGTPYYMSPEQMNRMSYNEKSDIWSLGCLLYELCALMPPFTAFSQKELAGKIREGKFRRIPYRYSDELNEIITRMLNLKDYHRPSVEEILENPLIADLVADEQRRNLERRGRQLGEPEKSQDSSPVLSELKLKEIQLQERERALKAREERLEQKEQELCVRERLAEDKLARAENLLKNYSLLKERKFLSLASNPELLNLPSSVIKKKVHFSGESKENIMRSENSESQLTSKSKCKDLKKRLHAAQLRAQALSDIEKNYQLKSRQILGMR
Chain of NEK7 (Q8TDX7 whole entry, species assumed): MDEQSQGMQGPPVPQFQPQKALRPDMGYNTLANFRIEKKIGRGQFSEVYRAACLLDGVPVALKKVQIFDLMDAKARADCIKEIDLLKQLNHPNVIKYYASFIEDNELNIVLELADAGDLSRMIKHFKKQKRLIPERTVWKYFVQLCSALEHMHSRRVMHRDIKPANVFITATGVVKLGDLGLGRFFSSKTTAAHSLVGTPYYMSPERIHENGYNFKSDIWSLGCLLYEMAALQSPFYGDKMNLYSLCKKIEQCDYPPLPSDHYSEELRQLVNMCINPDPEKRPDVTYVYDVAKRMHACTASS
Chain of CAMK-1 (Q14012 whole entry, species assumed): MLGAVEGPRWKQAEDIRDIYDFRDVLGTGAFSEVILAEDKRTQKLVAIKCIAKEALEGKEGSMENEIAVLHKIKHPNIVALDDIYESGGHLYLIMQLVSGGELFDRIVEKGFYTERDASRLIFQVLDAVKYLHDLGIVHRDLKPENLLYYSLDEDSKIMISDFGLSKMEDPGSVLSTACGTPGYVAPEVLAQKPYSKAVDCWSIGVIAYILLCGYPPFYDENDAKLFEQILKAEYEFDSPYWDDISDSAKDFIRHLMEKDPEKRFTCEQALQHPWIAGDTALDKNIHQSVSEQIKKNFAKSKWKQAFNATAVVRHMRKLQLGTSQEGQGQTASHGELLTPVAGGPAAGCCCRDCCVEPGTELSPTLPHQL
Chain of CSK (P41240 whole entry, species assumed): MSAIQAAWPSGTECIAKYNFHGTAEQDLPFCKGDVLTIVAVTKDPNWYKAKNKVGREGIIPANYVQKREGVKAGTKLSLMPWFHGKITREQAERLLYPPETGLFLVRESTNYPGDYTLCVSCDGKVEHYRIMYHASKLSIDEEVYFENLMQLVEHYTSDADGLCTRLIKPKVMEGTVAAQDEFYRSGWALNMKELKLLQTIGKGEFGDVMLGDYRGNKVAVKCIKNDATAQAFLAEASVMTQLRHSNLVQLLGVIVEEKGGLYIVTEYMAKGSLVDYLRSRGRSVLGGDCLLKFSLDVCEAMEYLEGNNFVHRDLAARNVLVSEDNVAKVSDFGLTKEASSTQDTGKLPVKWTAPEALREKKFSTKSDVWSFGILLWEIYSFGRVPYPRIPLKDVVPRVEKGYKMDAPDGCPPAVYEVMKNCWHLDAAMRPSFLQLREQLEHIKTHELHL

The term IC50 denotes the concentration needed to halve the response being measured. Regarding `CNc1nc(C)c(-c2ccnc(Nc3cccc(S(N)(=O)=O)c3)n2)s1` [Compound 19, 3-[4-(4-Methyl-2-methylamino-thiazol-5-yl)-pyrimidin-2-ylamino]-benzenesulfonamide], the IC50 in data set [1] was found to be 1200 nM; in [2], 580 nM.

By melting point is commonly meant the temperature, or range, at which the solid turns liquid. Compound `COCCNS(=O)(=O)c1cccc(Nc2nccc(-c3sc(N)nc3C)n2)c1` [Compound 55, 3-[4-(2-Amino-4-methyl-thiazol-5-yl)-pyrimidin-2-ylamino]-N-(2-methoxy-ethyl)-benzenesulfonamide] registered a melting point of 179 to 180 °C.

One may read the remaining activity as the signal under treatment as a percentage of the control signal. With `CCNc1nc(C)c(-c2ccnc(Nc3ccc(N4CCNCC4)cc3)n2)s1` [Compound 59, [4-(2-Ethylamino-4-methyl-thiazol-5-yl)-pyrimidin-2-yl]-(4-piperazin-1-yl-phenyl)-amine], the remaining activity at 5 µM stood at 1% on CDK2-cyclin A; 9% at NEK2a; 50% at NEK7; 20% at PDK1; 30% at CAMK-1; 0% at SGK. Moreover, the remaining activity at 5 µM on PRK2 amounted to 8%; on MKK1 it was 25%; on PKA, 22%; on CSK, 14%; on PRAK, 44%; on SRPK1, 88%. In addition, the remaining activity at 5 µM was 45% at MSK1, 87% at MAPKAP-K3, 66% on SAPK4/p38d and 14% at MAPKAP-K1a. In addition, in the data set with PKB, the “Remaining activity (%) PKB” value stood at 82%. For the same compound, inhibition in data set [2] was half-maximal at 3300 nM (IC50). For the same compound, in the data set on CK2, the “Remaining activity (%) CK2” value is listed as 2%. For the same compound, in the data set with PHK, the “Remaining activity (%) PHK” value was 3%. For the same compound, the “Remaining activity (%) CK1” value with CK1 stood at 3%. For the same compound, the “Remaining activity (%) AMPK” value in the data set on AMPK is on record as 2%.

On to `Cc1nc(CS(=O)(=O)c2cccs2)sc1-c1ccnc(Nc2ccc(N3CCOCC3)cc2)n1` [Compound 138, {4-[4-Methyl-2-(thiophene-2-sulfonylmethyl)-thiazol-5-yl]-pyrimidin-2-yl}-(4-morpholin-4-yl-phenyl)-amine], for which the remaining activity at 5 µM on CDK2-cyclin A stood at 9%; on NEK2a, 6%; at NEK7, 79%; at PDK1, 55%; at CAMK-1, 91%; at SGK, 5%. In addition, the remaining activity at 5 µM was found to be 78% at PRK2; 21% on MKK1; 29% at PKA; 30% on CSK; 59% at PRAK; 110% on SRPK1. Also, the remaining activity at 5 µM on MSK1 came out at 69%; at MAPKAP-K3, 104%; on SAPK4/p38d, 85%; at MAPKAP-K1a, 34%. The “Remaining activity (%) PKB” value in the data set on PKB amounted to 91%. In the data set on CK2, the “Remaining activity (%) CK2” value turned out to be 5%. For the same compound, the “Remaining activity (%) PHK” value in the data set with PHK was 15%. For the same compound, the “Remaining activity (%) CK1” value with CK1 turned out to be 27%. In addition, the “Remaining activity (%) AMPK” value in the data set with AMPK is 28%.
